{"source": "patent EP1227797B1", "about": "“SOLID DISPERSION PHARMACEUTICAL FORMULATIONS” (ABBOTT LABORATORIES, priority 1999, dated 2001)", "origin": "cited, not measured here", "conditions": "PEG solid dispersion formulation", "data": [{"smiles": "O=C1N(Cc2ccc(CO)cc2)[C@H](Cc2ccccc2)[C@H](O)[C@@H](O)[C@@H](Cc2ccccc2)N1Cc1ccc(CO)cc1", "note": "[DMP 323]", "values": [{"measurement": "bioavailability", "result": "unable to improve the bioavailability"}]}]}
